# Source: ChEMBL document CHEMBL5724696, “Autophagy assay results for EUbOPEN Chemogenomics Library” (2024)
# Several values for one entry are separate records, joined by “and”; a condition that tells them apart may be missing. Identical values can stand only once.
# Assays:
# Assay type in all cases: functional, Homo sapiens
# TERT-RPE1 = assay: (§1) Here: values are normalized to the negative (DMSO; defined as 0% autophagy induction) and positive (250nM Torin1; mTOR inhibitor; defined as maximal inducer of autophagy = 100%) control compounds and represented as % of autophagy induction. […] The impact of autophagy induction on cells is complex and depends on the affected target. As such, the magnitude of a phenotype may not be equally mirrored in the %-value of autophagy induction and vice versa. The dynamics of the induction may indicate the mode of activation: e.g. activation via phosphorylation or a signaling cascade may occur fast, while activation via transcription factors may take considerably longer. […] Of note, treatment concentrations may be sub-optimal for specific compounds, leading to false negative annotations.; details: Culturing Media DMEM/F12 (1:1), 1 % Penicillin/Streptomycin, 10% Fetal bovin serum Add-On: No, Screening Media Control DMEM/F12 (1:1), Screening Media Samples DMEM/F12 (1:1)
# U2OS [1] = assay: as §1; details: Culturing Media DMEM, 1 % Penicillin/Streptomycin, 10% Fetal bovin serum Add-On: No, Screening Media Control DMEM, Screening Media Samples DMEM
# U2OS [2] = assay: as §1; details: Culturing Media DMEM, 1 % Penicillin/Streptomycin, 10% Fetal bovin serum Add-On: No, Screening Media Control DMEM, Screening Media Samples DMEM; remark: listed apart in the source
# [3] = Compound Concentration 0.5 uM, Timepoint 12 hours
# [4] = Compound Concentration 0.5 uM, Timepoint 24 hours
# [5] = Compound Concentration 0.5 uM, Timepoint 36 hours
# [6] = Compound Concentration 0.5 uM, Timepoint 60 hours
# [7] = Compound Concentration 2 uM, Timepoint 12 hours
# [8] = Compound Concentration 2 uM, Timepoint 24 hours
# [9] = Compound Concentration 2 uM, Timepoint 36 hours
# [10] = Compound Concentration 2 uM, Timepoint 60 hours
# [11] = Compound Concentration 10 uM, Timepoint 12 hours
# [12] = Compound Concentration 10 uM, Timepoint 24 hours
# [13] = Compound Concentration 10 uM, Timepoint 36 hours
# [14] = Compound Concentration 10 uM, Timepoint 60 hours
Structure (SMILES),autophagy induction (U2OS [1]; [3]) [%],autophagy induction (U2OS [1]; [4]) [%],autophagy induction (U2OS [1]; [5]) [%],autophagy induction (U2OS [1]; [6]) [%],autophagy induction (U2OS [1]; [7]) [%],autophagy induction (U2OS [1]; [8]) [%],autophagy induction (U2OS [1]; [9]) [%],autophagy induction (U2OS [1]; [10]) [%],autophagy induction (U2OS [1]; [11]) [%],autophagy induction (U2OS [1]; [12]) [%],autophagy induction (U2OS [1]; [13]) [%],autophagy induction (U2OS [1]; [14]) [%],autophagy induction (U2OS [2]; [3]) [%],autophagy induction (U2OS [2]; [4]) [%],autophagy induction (U2OS [2]; [5]) [%],autophagy induction (U2OS [2]; [6]) [%],autophagy induction (U2OS [2]; [7]) [%],autophagy induction (U2OS [2]; [8]) [%],autophagy induction (U2OS [2]; [9]) [%],autophagy induction (U2OS [2]; [10]) [%],further results
COC1CCN(c2cccc(-c3cc(NC(C)=O)nc(-n4nc(C)cc4C)n3)n2)CC1,2.5303,-0.8923,-0.9403,0.4833,5.065,2.721,-0.07864,-0.6053,7.172,-0.05151,0.1867,-2.376,34.4556,27.7724,24.8838,23.4921,-5.934,-0.6278,-1.762,-0.9306,autophagy induction (TERT-RPE1; [3]): -7.33%; autophagy induction (TERT-RPE1; [4]): -8.964%; autophagy induction (TERT-RPE1; [5]): -12.5665%; autophagy induction (TERT-RPE1; [6]): -12.2397%; autophagy induction (TERT-RPE1; [7]): -1.032%; autophagy induction (TERT-RPE1; [8]): 0.9672%; autophagy induction (TERT-RPE1; [9]): 2.277%; autophagy induction (TERT-RPE1; [10]): 7.2174%; autophagy induction (TERT-RPE1; [11]): 3.426%; autophagy induction (TERT-RPE1; [12]): 13.112%; autophagy induction (TERT-RPE1; [13]): 27.8595%; autophagy induction (TERT-RPE1; [14]): 52.8636%; autophagy induction (U2OS [2]; [11]): -4.754%; autophagy induction (U2OS [2]; [12]): 3.79%; autophagy induction (U2OS [2]; [13]): 9.047%; autophagy induction (U2OS [2]; [14]): 19.3391%
C[C@]1(C(=O)N(CCCC(=O)O)Cc2cccc(Cl)c2)CCN1C(=O)c1csc2ccccc12 [GLPG-0974],2.89,1.055,-0.2915,0.8021,5.8948,0.1613,-0.9761,-1.363,4.366,0.7536,-0.03596,0.5874,-10.0746,-10.8247,-4.098,-4.538,5.378,3.105,6.198,1.696,autophagy induction (TERT-RPE1; [3]): -9.58%; autophagy induction (TERT-RPE1; [4]): -12.1708%; autophagy induction (TERT-RPE1; [5]): -12.5657%; autophagy induction (TERT-RPE1; [6]): -12.3909%; autophagy induction (TERT-RPE1; [7]): -4.812%; autophagy induction (TERT-RPE1; [8]): -8.05%; autophagy induction (TERT-RPE1; [9]): -10.5216%; autophagy induction (TERT-RPE1; [10]): -11.4009%; autophagy induction (TERT-RPE1; [11]): -6.234%; autophagy induction (TERT-RPE1; [12]): -7.969%; autophagy induction (TERT-RPE1; [13]): -9.743%; autophagy induction (TERT-RPE1; [14]): -14.0611%; autophagy induction (U2OS [2]; [11]): 3.852%; autophagy induction (U2OS [2]; [12]): 1.348%; autophagy induction (U2OS [2]; [13]): 0.8582%; autophagy induction (U2OS [2]; [14]): -7.082%
Cl.Clc1ccc(CCCOCCCN2CCCCC2)cc1 [PITOLISANT HYDROCHLORIDE],15.5533,6.616,-57.7817,-0.2681,-2.233,-2.143,-60.8013,-1.476,10.0351,1.34,-57.6898,-1.026,13.8608,9.201,8.758,0.1501,-8.536,-1.42,-3.922,-5.605,"autophagy induction (TERT-RPE1; Compound Concentration 0.5 uM, Timepoint 12 hours, 12 h, 0.5 µM): -3.0454% and 2.896%; autophagy induction (TERT-RPE1; Compound Concentration 0.5 uM, Timepoint 24 hours, 24 h, 0.5 µM): -1.513% and 3.003%; autophagy induction (TERT-RPE1; Compound Concentration 0.5 uM, Timepoint 36 hours, 36 h, 0.5 µM): -3.944% and 2.632%; autophagy induction (TERT-RPE1; Compound Concentration 0.5 uM, Timepoint 60 hours, 60 h, 0.5 µM): -4.171% and 0.01183%; autophagy induction (TERT-RPE1; Compound Concentration 2 uM, Timepoint 12 hours, 12 h, 2 µM): 0.8347% and 2.672%; autophagy induction (TERT-RPE1; Compound Concentration 2 uM, Timepoint 24 hours, 24 h, 2 µM): 0.6662% and 3.448%; autophagy induction (TERT-RPE1; Compound Concentration 2 uM, Timepoint 36 hours, 36 h, 2 µM): -1.283% and 2.753%; autophagy induction (TERT-RPE1; Compound Concentration 2 uM, Timepoint 60 hours, 60 h, 2 µM): -3.185% and 1.301%; autophagy induction (TERT-RPE1; Compound Concentration 10 uM, Timepoint 36 hours, 36 h, 10 µM): -0.5799% and 21.0375%; autophagy induction (U2OS [2]; [11]): 1.329%; autophagy induction (U2OS [2]; [12]): 3.348%; autophagy induction (U2OS [2]; [13]): 1.993%; autophagy induction (U2OS [2]; [14]): 3.566%"
